Source: patent US8758816B2, “Compositions comprising azelastine and methods of use thereof” (priority 2004, dated 2014)

Tested on: patients with seasonal allergic rhinitis (SAR)
Test: MP 428 study: individual symptom severity scores (runny nose, itchy nose, sneezing, congestion; 0-3 scale)
Format: in vivo, human
Settings: Intent-to-Treat Population
Description: A two-week, randomized, double-blind study, which evaluated the effects of the co-administration of ASTELIN® (azelastine hydrochloride (HCl)) and FLONASE® (fluticasone propionate) compared to either product alone in patients with seasonal allergic rhinitis (SAR) was conducted during the 2006 Texas mountain cedar season. After a 5-day placebo lead-in period, 151 patients with moderate-to-severe allergic rhinitis symptoms were randomized to either: (1) (49 total patients) ASTELIN® (azelastine hydrochloride (HCl)) plus placebo saline nasal spray 2 sprays per nostril, 15 minutes apart, twice daily (AM & PM); (2) (50 total patients) FLONASE® (fluticasone propionate) plus placebo saline nasal spray, 2 sprays per nostril, 15 minutes apart, once daily (AM) and two sessions of placebo saline nasal spray, 2 sprays per nostril, 15 minutes apart (PM); or (3) (52 total patients) the co-administration of ASTELIN® (azelastine hydrochloride (HCl)) 2 sprays per nostril plus FLONASE® (fluticasone propionate) 2 sprays per nostril (AM), 15 minutes apart, and ASTELIN® (azelastine hydrochloride (HCl)) 2 sprays per nostril plus placebo saline nasal spray, 15 minutes apart, (PM) for a 2-week double-blind treatment period.
The primary efficacy variable was the change from baseline in the Total Nasal Symptom Score (TNSS), which comprised sneezing, itchy nose, runny nose, and nasal congestion (individual symptoms scores were assigned a value between 0 and 3, where 0=no symptoms and 3=severe symptoms). This study was not statistically designed to assess the differences between ASTELIN® and FLONASE®.
The results of the clinical trial are summarized and presented in Appendix A hereinbelow and in FIGS. 1-6. […] FIGS. 2-5 show the mean improvement in severity score (0-3 scale) from baseline for the symptoms of runny nose, itchy nose, sneezing and congestion, respectively.

CCC(=O)O[C@]1(C(=O)SCF)[C@H](C)C[C@H]2[C@@H]3C[C@H](F)C4=CC(=O)C=C[C@]4(C)[C@@]3(F)[C@@H](O)C[C@@]21C [Fluticasone, fluticasone propionate]
Percent Change from Baseline in AM and PM Combined Nasal Symptom Score: Congestion, LS Mean (Day 12): −26.02% | Percent Change from Baseline in AM and PM Combined Nasal Symptom Score: Congestion, Mean (Day 12): −27.05% | Percent Change from Baseline in AM and PM Combined Nasal Symptom Score: Congestion, Median (Day 12): −27.93% | Percent Change from Baseline in AM and PM Combined Nasal Symptom Score: Itchy Nose, LS Mean (Day 12): −29.96% | Percent Change from Baseline in AM and PM Combined Nasal Symptom Score: Itchy Nose, Mean (Day 12): −29.58% | Percent Change from Baseline in AM and PM Combined Nasal Symptom Score: Itchy Nose, Median (Day 12): −30.22% | Percent Change from Baseline in AM and PM Combined Nasal Symptom Score: Runny Nose, LS Mean (Day 12): −31.33% | Percent Change from Baseline in AM and PM Combined Nasal Symptom Score: Runny Nose, Mean (Day 12): −31.86% | Percent Change from Baseline in AM and PM Combined Nasal Symptom Score: Runny Nose, Median (Day 12): −25.62% | Percent Change from Baseline in AM and PM Combined Nasal Symptom Score: Sneezing, LS Mean (Day 12): −33.86% | Percent Change from Baseline in AM and PM Combined Nasal Symptom Score: Sneezing, Mean (Day 12): −31.18% | Percent Change from Baseline in AM and PM Combined Nasal Symptom Score: Sneezing, Median (Day 12): −35.69% | Change from Baseline in AM and PM Combined Nasal Symptom Score: Congestion, LS Mean (Day 13): −1.55 | Change from Baseline in AM and PM Combined Nasal Symptom Score: Congestion, Mean (Day 13): −1.59 | Change from Baseline in AM and PM Combined Nasal Symptom Score: Congestion, Median (Day 13): −1.43 | Change from Baseline in AM and PM Combined Nasal Symptom Score: Itchy Nose, LS Mean (Day 13): −1.64 | Change from Baseline in AM and PM Combined Nasal Symptom Score: Itchy Nose, Mean (Day 13): −1.62 | Change from Baseline in AM and PM Combined Nasal Symptom Score: Itchy Nose, Median (Day 13): −1.42 | Change from Baseline in AM and PM Combined Nasal Symptom Score: Runny Nose, LS Mean (Day 13): −1.78 | Change from Baseline in AM and PM Combined Nasal Symptom Score: Runny Nose, Mean (Day 13): −1.78 | Change from Baseline in AM and PM Combined Nasal Symptom Score: Runny Nose, Median (Day 13): −2.00 | Change from Baseline in AM and PM Combined Nasal Symptom Score: Sneezing, LS Mean (Day 13): −1.98 | Change from Baseline in AM and PM Combined Nasal Symptom Score: Sneezing, Mean (Day 13): −1.84 | Change from Baseline in AM and PM Combined Nasal Symptom Score: Sneezing, Median (Day 13): −1.83 | Percent Change from Baseline in AM and PM Combined Nasal Symptom Score: Congestion, LS Mean (Day 13): −28.59% | Percent Change from Baseline in AM and PM Combined Nasal Symptom Score: Congestion, Mean (Day 13): −28.95% | Percent Change from Baseline in AM and PM Combined Nasal Symptom Score: Congestion, Median (Day 13): −26.38% | Percent Change from Baseline in AM and PM Combined Nasal Symptom Score: Itchy Nose, LS Mean (Day 13): −31.14% | Percent Change from Baseline in AM and PM Combined Nasal Symptom Score: Itchy Nose, Mean (Day 13): −30.81% | Percent Change from Baseline in AM and PM Combined Nasal Symptom Score: Itchy Nose, Median (Day 13): −31.23% | Percent Change from Baseline in AM and PM Combined Nasal Symptom Score: Runny Nose, LS Mean (Day 13): −30.96% | Percent Change from Baseline in AM and PM Combined Nasal Symptom Score: Runny Nose, Mean (Day 13): −30.84% | Percent Change from Baseline in AM and PM Combined Nasal Symptom Score: Runny Nose, Median (Day 13): −33.33% | Percent Change from Baseline in AM and PM Combined Nasal Symptom Score: Sneezing, LS Mean (Day 13): −42.84% | Percent Change from Baseline in AM and PM Combined Nasal Symptom Score: Sneezing, Mean (Day 13): −40.87% | Percent Change from Baseline in AM and PM Combined Nasal Symptom Score: Sneezing, Median (Day 13): −35.42% | Change from Baseline in AM and PM Combined Nasal Symptom Score: Congestion, LS Mean (Day 14): −1.53 | Change from Baseline in AM and PM Combined Nasal Symptom Score: Congestion, Mean (Day 14): −1.59 | Change from Baseline in AM and PM Combined Nasal Symptom Score: Congestion, Median (Day 14): −1.30 | Change from Baseline in AM and PM Combined Nasal Symptom Score: Itchy Nose, LS Mean (Day 14): −1.76 | Change from Baseline in AM and PM Combined Nasal Symptom Score: Itchy Nose, Mean (Day 14): −1.74 | Change from Baseline in AM and PM Combined Nasal Symptom Score: Itchy Nose, Median (Day 14): −1.57 | Change from Baseline in AM and PM Combined Nasal Symptom Score: Runny Nose, LS Mean (Day 14): −1.89 | Change from Baseline in AM and PM Combined Nasal Symptom Score: Runny Nose, Mean (Day 14): −1.88 | Change from Baseline in AM and PM Combined Nasal Symptom Score: Runny Nose, Median (Day 14): −2.15 | Change from Baseline in AM and PM Combined Nasal Symptom Score: Sneezing, LS Mean (Day 14): −1.87 | Change from Baseline in AM and PM Combined Nasal Symptom Score: Sneezing, Mean (Day 14): −1.70 | Change from Baseline in AM and PM Combined Nasal Symptom Score: Sneezing, Median (Day 14): −1.83 | Percent Change from Baseline in AM and PM Combined Nasal Symptom Score: Congestion, LS Mean (Day 14): −28.37% | Percent Change from Baseline in AM and PM Combined Nasal Symptom Score: Congestion, Mean (Day 14): −29.09% | Percent Change from Baseline in AM and PM Combined Nasal Symptom Score: Congestion, Median (Day 14): −24.53% | Percent Change from Baseline in AM and PM Combined Nasal Symptom Score: Itchy Nose, LS Mean (Day 14): −33.39% | Percent Change from Baseline in AM and PM Combined Nasal Symptom Score: Itchy Nose, Mean (Day 14): −33.38% | Percent Change from Baseline in AM and PM Combined Nasal Symptom Score: Itchy Nose, Median (Day 14): −33.33% | Percent Change from Baseline in AM and PM Combined Nasal Symptom Score: Runny Nose, LS Mean (Day 14): −36.10% | Percent Change from Baseline in AM and PM Combined Nasal Symptom Score: Runny Nose, Mean (Day 14): −35.65% | Percent Change from Baseline in AM and PM Combined Nasal Symptom Score: Runny Nose, Median (Day 14): −41.75% | Percent Change from Baseline in AM and PM Combined Nasal Symptom Score: Sneezing, LS Mean (Day 14): −39.31% | Percent Change from Baseline in AM and PM Combined Nasal Symptom Score: Sneezing, Mean (Day 14): −36.07% | Percent Change from Baseline in AM and PM Combined Nasal Symptom Score: Sneezing, Median (Day 14): −33.94% | Change from Baseline in AM and PM Combined Nasal Symptom Score: Congestion, LS Mean (Overall (Day 2 to Day 14)): −1.14 | Change from Baseline in AM and PM Combined Nasal Symptom Score: Congestion, Mean (Overall (Day 2 to Day 14)): −1.19 | Change from Baseline in AM and PM Combined Nasal Symptom Score: Congestion, Median (Overall (Day 2 to Day 14)): −0.99 | Change from Baseline in AM and PM Combined Nasal Symptom Score: Itchy Nose, LS Mean (Overall (Day 2 to Day 14)): −1.25 | Change from Baseline in AM and PM Combined Nasal Symptom Score: Itchy Nose, Mean (Overall (Day 2 to Day 14)): −1.24 | Change from Baseline in AM and PM Combined Nasal Symptom Score: Itchy Nose, Median (Overall (Day 2 to Day 14)): −0.95 | Change from Baseline in AM and PM Combined Nasal Symptom Score: Runny Nose, LS Mean (Overall (Day 2 to Day 14)): −1.34 | Change from Baseline in AM and PM Combined Nasal Symptom Score: Runny Nose, Mean (Overall (Day 2 to Day 14)): −1.36 | Change from Baseline in AM and PM Combined Nasal Symptom Score: Runny Nose, Median (Overall (Day 2 to Day 14)): −1.04 | Change from Baseline in AM and PM Combined Nasal Symptom Score: Sneezing, LS Mean (Overall (Day 2 to Day 14)): −1.52 | Change from Baseline in AM and PM Combined Nasal Symptom Score: Sneezing, Mean (Overall (Day 2 to Day 14)): −1.44 | Change from Baseline in AM and PM Combined Nasal Symptom Score: Sneezing, Median (Overall (Day 2 to Day 14)): −1.34 | Percent Change from Baseline in AM and PM Combined Nasal Symptom Score: Congestion, LS Mean (Overall (Day 2 to Day 14)): −21.11% | Percent Change from Baseline in AM and PM Combined Nasal Symptom Score: Congestion, Mean (Overall (Day 2 to Day 14)): −21.68% | Percent Change from Baseline in AM and PM Combined Nasal Symptom Score: Congestion, Median (Overall (Day 2 to Day 14)): −18.72% | Percent Change from Baseline in AM and PM Combined Nasal Symptom Score: Itchy Nose, LS Mean (Overall (Day 2 to Day 14)): −25.54% | Percent Change from Baseline in AM and PM Combined Nasal Symptom Score: Itchy Nose, Mean (Overall (Day 2 to Day 14)): −25.67% | Percent Change from Baseline in AM and PM Combined Nasal Symptom Score: Itchy Nose, Median (Overall (Day 2 to Day 14)): −18.89% | Percent Change from Baseline in AM and PM Combined Nasal Symptom Score: Runny Nose, LS Mean (Overall (Day 2 to Day 14)): −23.02% | Percent Change from Baseline in AM and PM Combined Nasal Symptom Score: Runny Nose, Mean (Overall (Day 2 to Day 14)): −23.19% | Percent Change from Baseline in AM and PM Combined Nasal Symptom Score: Runny Nose, Median (Overall (Day 2 to Day 14)): −21.99% | Percent Change from Baseline in AM and PM Combined Nasal Symptom Score: Sneezing, LS Mean (Overall (Day 2 to Day 14)): −31.80% | Percent Change from Baseline in AM and PM Combined Nasal Symptom Score: Sneezing, Mean (Overall (Day 2 to Day 14)): −31.11% | Percent Change from Baseline in AM and PM Combined Nasal Symptom Score: Sneezing, Median (Overall (Day 2 to Day 14)): −33.13%
